Usually melting point stands for the temperature, or range, at which the solid turns liquid. By IC50 is commonly meant the concentration needed to halve the response being measured.

The target in series [1] is T1, Melanin Concentrating Hormone Receptor 1 (MCHR1) (Homo sapiens, UniProt Q99705).
T1 construct: expressed in transfected cells
The series is described as follows: MCHR1 Receptor Activation Assay (GTPγ^35S). Type of series: biochemical. To be noted: read-out: GTPγ^35S IC50.

T1 sequence (Q99705 whole entry): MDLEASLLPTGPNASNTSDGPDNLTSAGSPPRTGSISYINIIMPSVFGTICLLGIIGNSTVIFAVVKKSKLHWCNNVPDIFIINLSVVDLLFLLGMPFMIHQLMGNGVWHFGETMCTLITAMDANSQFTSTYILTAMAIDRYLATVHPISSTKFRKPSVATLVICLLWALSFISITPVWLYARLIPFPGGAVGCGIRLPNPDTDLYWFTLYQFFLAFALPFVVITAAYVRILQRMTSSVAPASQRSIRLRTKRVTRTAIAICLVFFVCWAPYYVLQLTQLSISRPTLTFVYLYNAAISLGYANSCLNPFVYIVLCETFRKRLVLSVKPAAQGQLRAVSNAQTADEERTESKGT

Compound `Cc1cc(OC2CN(C(=O)c3nnc(-c4ccccc4)o3)C2)ccc1CN(C)C` [Example 21, (3-(4-((Dimethylamino)methyl)-3-methylphenoxy)azetidin-1-yl)(5-phenyl-1,3,4-oxadiazol-2-yl)methanone] yielded a melting point of 135 °C. Also, in series [1], the IC50 stood at 22 nM.
As to `O=C(c1nnc(-c2ccccc2)o1)N1CC(Oc2ccc(CN3CC(C(F)F)C3)cc2)C1` [Example 68, (3-(4-((3-(Difluoromethyl)azetidin-1-yl)methyl)phenoxy)azetidin-1-yl)(5-phenyl-1,3,4-oxadiazol-2-yl)methanone], in series [1], the 50% inhibitory concentration (IC50) was determined as 21 nM.
On to `COc1ccc(-c2nnc(C(=O)N3CC(Oc4ccc(CN5CCC(F)(CO)CC5)cc4)C3)o2)cc1` [Example 81, (3-(4-((4-Fluoro-4-(hydroxymethyl)piperidin-1-yl)methyl)phenoxy)azetidin-1-yl)(5-(4-methoxyphenyl)-1,3,4-oxadiazol-2-yl)methanone], for which the 50% inhibitory concentration (IC50) in series [1] is 25 nM.

Source of the values: patent US8546375B2, “(3-(4-(aminomethyl)phenoxy or phenylthio)azetidin-1-yl)(5-phenyl-1,3,4-oxadiazol-2-yl)methanone compounds” (AstraZeneca AB, priority 2010, dated 2013).
